The values below come from ChEMBL document CHEMBL1151040, “Synthetic inhibitors of interleukin-6 I: 2,3,7,8-tetrahydro-4-aryl-1H-cyclopent [e] imidazo [1,2-a]- pyridin-5(6H)-one and related compounds” (Bioorg Med Chem Lett, 1995).

In general, inhibition refers to the share of the control response that was lost under treatment. A word on the IC50: it is the concentration that gives 50% inhibition. Broadly, the inhibition in vivo is the relative decrease from the control value, in per cent. Usually ED50 stands for the dose at which the effect has come halfway, by size or by number of responders. Lower therefore signals an effect at a small dose. As usually defined, the Inhibition is the drop in the measured response relative to a control, in per cent.

Test [1] deals with WEHI265.1. As to the kind of experiment: In vitro inhibitory activity against lipopolysaccharide (LPS)-induced interleukin 6 production in murine myelomonocytic leukemia (WEHI-265.1) cells at a concentration of 10 uM. The conditions noted are these: Mus musculus. The test is classed as functional.
For test [2], the system named is WEHI265.1. As to the kind of experiment: In vitro inhibitory activity against lipopolysaccharide (LPS)-induced interleukin 6 (IL-6) production in murine myelomonocytic leukemia (WEHI-265.1) cells. The test is classed as functional, cell-based. Conditions: Mus musculus.
Test [3] deals with Mus musculus. Kind of test: Inhibitory activity against LPS-induced interleukin 6 (IL-6) in the serum of C3H mice, at a dose of 25 mpk by oral administration. The test is classed as functional.
The test system of test [4] is Mus musculus. Kind of test: Effective dose of compound against serum interleukin 6 (IL-6) in C3H mice when administered intraperitoneally. The test is classed as functional. The conditions noted are these: ip.
Test [5] deals with Mus musculus. As to the kind of experiment: Effective dose of compound against serum interleukin 6 (IL-6) in C3H mice when administered orally. The test is classed as functional. The conditions noted are these: po.
The subject of test [6] is WEHI265.1. Kind of test: In vitro inhibitory activity against lipopolysaccharide (LPS) -induced IL-6 production in murine myelomonocytic uM. The test is classed as functional, Mus musculus.
Test [7] concerns Mus musculus. As to the kind of experiment: Inhibitory activity against LPS-induced interleukin 6 (IL-6) in the serum of C3H mice, at a dose of 25 mpk by intraperitoneal administration. The conditions noted are these: ip. The format is functional.

Turning to `O=c1c2c(n3c(c1-c1ccccc1)N(Cc1ccccc1)CC3)CCC2`, 10 µM produced 43% inhibition in the test with WEHI265.1 [1].

Regarding `CCOC(=O)C1=C(O)C2=C(CCC2)N2CCN=C12`, in the test on WEHI265.1 [1], the inhibition at 10 µM stood at 58%. As for `CN1CCn2c3c(c(=O)c(-c4ccccc4)c21)CCC3`, the inhibition at 10 µM in the test with WEHI265.1 [1] is 27%.

For `O=c1c2c(n3c(c1-c1ccccc1)OCC3)CCC2`, testing at 10 µM in the test on WEHI265.1 [1] gave an inhibition of 20%. Consider `O=C(O)c1cccc(C2=C(O)C3=C(CCC3)N3CCN=C23)c1`, for which, in the test with WEHI265.1 [1], 10 µM produced 0% inhibition. On to `OC1=C(Sc2ccccc2)C2=NCCN2C2=C1CCC2`, for which testing at 10 µM in the test with WEHI265.1 [1] gave an inhibition of 63%. Regarding `O=[N+]([O-])c1ccccc1C1=C(O)C2=C(CCC2)N2CCN=C12`, the inhibition at 10 µM in the test with WEHI265.1 [1] worked out at 73%. For the same compound, the IC50 in the test on WEHI265.1 [2] amounted to 6 µM. At 25 mg/kg the inhibition in vivo in the test on Mus musculus [3] was 78%. In the test on Mus musculus [4], this compound registered an ED50 of 8 mg/kg.

`O=c1c2c(n3c(c1-c1ccccc1)SCC3)CCC2` had an inhibition at 10 µM with WEHI265.1 [1] of 52%. Compound `OC1=CC2=NCCN2C2=C1CCC2` registered an inhibition at 10 µM with WEHI265.1 [1] of 38%. Still for that read-out and setting: the result for `OC1=C(c2ccccc2C(F)(F)F)C2=NCCN2C2=C1CCC2` reads 90%; that for `OC1=C(c2cccnc2)C2=NCCN2C2=C1CCC2`, 0%. In the case of `O=c1c2c(n3c(c1-c1ccccc1Cl)NCC3)CCC2`, the inhibition at 10 µM in the test with WEHI265.1 [1] is 90%. In addition, half-maximal inhibition in the test on WEHI265.1 [2] (IC50) required 4 µM. The compound further came in with an ED50 in the test on Mus musculus [4] of 0.5 mg/kg. As for `CC(=O)Nc1ccccc1-c1c2n(c3c(c1=O)CCC3)CCN2`, in the test on WEHI265.1 [1], at 10 µM the inhibition was 74%. It took 5 µM to reach half-maximal inhibition in the test with WEHI265.1 [2] (IC50).

In the test on WEHI265.1 [1], `OC1=C(c2ccccn2)C2=NCCN2C2=C1CCC2` had an inhibition at 10 µM of 55%. Regarding `Nc1ccccc1-c1c2n(c3c(c1=O)CCC3)CCN2`, the inhibition at 10 µM with WEHI265.1 [1] amounted to 82%. The compound also came in with an IC50 in the test on WEHI265.1 [2] of 2 µM. Also, in the test with Mus musculus [3], the inhibition in vivo at 25 mg/kg came out at 72%. This compound also showed a median effective dose (ED50) in the test on Mus musculus [4] of 4 mg/kg.

Turning to `CCOC(=O)c1cccc(C2=C(O)C3=C(CCC3)N3CCN=C23)c1`, at 10 µM the inhibition in the test with WEHI265.1 [1] was 83%. Further, the IC50 with WEHI265.1 [2] amounted to 0.6 µM.

As to `OC1=C(c2ccccc2O)C2=NCCN2C2=C1CCC2`, testing at 10 µM in the test with WEHI265.1 [1] gave an inhibition of 55%. Take `COc1ccccc1-c1c2n(c3c(c1=O)CCC3)CCN2`: the inhibition at 10 µM with WEHI265.1 [1] turned out to be 82%. In the test on Mus musculus [4], this compound showed an ED50 of 0.3 mg/kg. Take `OC1=C(c2ccccc2)C2=NCCN2C2=C1CCC2`: the ED50 in the test with Mus musculus [5] worked out at 32 mg/kg; with Mus musculus [4] it was 0.35 mg/kg. The same compound displayed an Inhibition with WEHI265.1 [6] of 74%. The compound further yielded an IC50 with WEHI265.1 [2] of 0.2 µM. Further, the figures for the inhibition in vivo at 25 mg/kg with Mus musculus [3] and with Mus musculus [7] were 39% and 77%, respectively. Turning to `CSC1=C(O)C2=C(CCC2)N2CCN=C12`, in the test with WEHI265.1 [1], 10 µM produced 77% inhibition.
